{"source": "patent US7659078B1", "about": "“Method and kit for determination of prostacyclin in plasma” (University of Kentucky Research Foundation, priority 2002, dated 2010)", "molecules": {"B1": {"name": "1:500 conjugate: NHS ester of 6-keto-PGF1α conjugated to cysteine-free mutant aequorin at 1:500 mole ratio aequorin:6-keto-PGF1α (conjugate)", "chain": "VKLTPDFDNPKWIGRHKHMFNFLDVNHNGRISLDEMVYKASDIVINNLGATPEQAKRHKDAVEAFFGGAGMKYGVETEWPEYIEGWKRLASEELKRYSKNQITLIRLWGDALFDIIDKDQNGAISLDEWKAYTKSDGIIQSSEDSEETFRVSDIDESGQLDVDEMTRQHLGFWYTMDPASEKLYGGAVP"}}}
{"test_system": "not listed separately", "assay": "6-keto-PGF1α in plasma of PPH patients on intravenous prostacyclin, measured directly without extraction", "type": "in vivo, human", "details": "PPH patient plasma samples", "method": "The analysis of 6-keto-PGF1α directly in plasma without extraction was performed by diluting the samples 1:200 times and using 50 μL in the dose-response curve along with 100 μL 6-keto-PGF1α of antibody and 50 μL of 6-keto-PGF1α-aequorin conjugate. The analysis was performed in the same manner as the dose-response curve described before. The amount of 6-keto-PGF1α in the samples was calculated from the standard dose response curve generated in plasma. The appropriate dilution factor was taken into consideration when calculating the amount of 6-keto-PGF1α present in each sample.\nFor in vivo analysis plasma samples were obtained from five patients with severe pulmonary arterial hypertension and 7 normal controls. […] All patient samples were analyzed in the same manner as the dose response curve in plasma. […] The amount of 6-keto-PGF1α in the samples was calculated as described before for sample analysis without extraction. […]\nIn order to obtain recovery data further analysis of the samples was performed. Two of the normal plasma samples and two patient plasma samples were first analyzed using the assay without extraction. […] The amount of 6-keto-PGF1α in the samples was calculated as described before for sample analysis without extraction. The samples were analyzed in triplicates. […]"}
{"molecule": "CCCCC[C@H](O)/C=C/[C@@H]1[C@H]2C/C(=C/CCCC(=O)O)O[C@H]2C[C@H]1O", "note": "[Prostacyclin]", "levels of 6-keto-PGF1α in plasma versus prostacyclin dose": "increased with increase in the prostacyclin dose"}
{"test_system": "anti-6-keto-PGF1α antibody", "assay": "Binder dilution study of 6-keto-PGF1α-aequorin conjugates", "type": "binding, sheep", "details": "1×10^−10 M conjugate, 2 h room temperature, secondary antibody-coated plate; compared with 1:50 and 1:200 conjugates", "method": "For the binder dilution studies aliquots of 100 μL of different concentrations of serially diluted anti-6-keto-PGF1α antibody, produced in sheep and 50 μL of 1×10^−10 M 6-keto-PGF1α-aequorin conjugate were placed simultaneously in microtiter plates pre-coated with a secondary antibody, donkey anti-sheep IgG. All dilutions were done in the assay buffer. The plates were incubated in dark at room temperature for 2 h with shaking at 300 rpm. Then the plates were washed with wash buffer (30 mM Tris-HCL buffer, pH 7.0, containing 2 mM EDTA, 0.15 M NaCl, and 0.1% Tween 20) three times to remove any unbound primary antibody or any unbound conjugate. Finally, the light intensity was measured as described earlier for the calibration plot.\nThe next step was to study the interaction between the anti-6-keto-PGF1α antibody and the conjugates. […] After washing the plate to remove any unbound antibody or conjugate the luminescence was measured. […] The effect of increased or decreased amounts of 6-keto-PGF1α antibody and/or conjugate on the dose-response curve was also evaluated. […] The dose-response curve obtained for 6-keto-PGF1α as depicted in FIG. 3, is sigmoidal in shape, with the luminescence intensity being lower at high concentrations of 6-keto-PGF1α and increasing as the concentration of 6-keto-PGF1α decreases. […]"}
{"molecule": "B1", "binding to 6-keto-PGF1α antibody (binder-dilution curves)": "maximum binding"}
{"test_system": "anti-6-keto-PGF1α antibody", "assay": "Cross-reactivity of related prostaglandins in the 6-keto-PGF1α aequorin bioluminescent immunoassay", "type": "binding, sheep", "details": "calculated at 50% B/B0; cross reactant used in the dose response curve instead of 6-keto-PGF1α; assay buffer", "method": "Dose-Response Curve: A dose-response curve was generated for 6-keto-PGF1α by simultaneously incubating 100 μL of 6-keto-PGF1α antibody (1:10,000 dilution), 50 μL of different concentrations of the serially diluted analyte, 6-keto-PGF1α, and 50 μL of 1×10^−10 M coelenterazine bound 6-keto-PGF1α-aequorin conjugate (1:500) on microtiter plates coated with the secondary antibody. The plate was incubated in dark at room temperature for two hours with shaking at 300 rpm. The plate was washed three times with the wash buffer to remove any unbound components. The light intensity was measured as described before.\nPresence of various prostaglandins other than 6-keto-PGF1α in the blood can cause non-specific binding with the 6-keto-PGF1α antibody and interfere with the detection of 6-keto-PGF1α, giving extremely high values of 6-keto-PGF1α. Therefore, it becomes important to confirm that the amount of 6-keto-PGF1α obtained from our assay is only due to 6-keto-PGF1α and no other prostaglandin. The cross-reactivities of other prostaglandins similar in structure to 6-keto-PGF1α were determined by preparing standard solutions of the compounds in the assay buffer ranging from 100,000 to 100 pg/mL and using them in this assay for 6-keto-PGF1α. The measured 6-keto-PGF1α concentration at 50% B/B0 was then calculated. The percent cross-reactivities were calculated by comparison of measured cross-reactant concentration and the actual concentration (known amount) of the cross-reactant in the sample (Table 1). It must be noted that the prostaglandins occur at different times in the arachidonic acid pathway and in different concentrations. […] The assay can, therefore, be used to measure 6-keto-PGF1α directly from plasma.\nCross-reactivities of related prostaglandins were measured by using varying concentrations of 50 μL of the cross reactant in the dose response curve instead of 6-keto-PGF1α. The percent cross-reactivities were calculated at 50% B/B0.", "units": {"Percent cross-reactivity": "%"}}
{"molecule": "CCCCC[C@H](O)/C=C/[C@@H]1[C@@H](CC(=O)CCC(=O)O)[C@@H](O)C[C@H]1O", "note": "[2,3-dinor-6-keto-Prostaglandin F1, 2,3-dinor-6-keto-Prostaglandin F1α]", "Percent cross-reactivity": 10.1}
{"molecule": "CCCCCC(=O)CCC1C(O)CC(O)C1CC(=O)CCCCC(=O)O", "note": "(stereo not shown) [6,15-diketo-13,14-dihydro-Prostaglandin F1]", "Percent cross-reactivity": 1.83}
{"molecule": "CCCCC[C@H](O)/C=C/[C@@H]1[C@@H](CC(=O)CCCCC(=O)O)[C@@H](O)C[C@H]1O", "note": "[6-keto-Prostaglandin F1, 6-keto-Prostaglandin F1α]", "Percent cross-reactivity": 100}
{"molecule": "CCCCCC(=O)CCC1C(O)CC(O)C1CCCCCCC(=O)O", "note": "(stereo not shown) [13,14-dihydroxy-15-keto-Prostaglandin F1]", "Percent cross-reactivity": 0.45}
{"molecule": "CCCCC[C@H](O)/C=C/[C@H]1C(=O)C[C@H](O)[C@@H]1C/C=C\\CCCC(=O)O", "note": "[Prostaglandin D2]", "Percent cross-reactivity": 7.75}
{"molecule": "CCCCC[C@H](O)/C=C/[C@H]1[C@H](O)CC(=O)[C@@H]1CCCCCCC(=O)O", "note": "[Prostaglandin E1]", "Percent cross-reactivity": 6.75}
{"molecule": "CCCCC[C@H](O)/C=C/[C@@H]1[C@@H](CCCCCCC(=O)O)[C@@H](O)C[C@H]1O", "note": "[Prostaglandin F1]", "Percent cross-reactivity": 5.4}
{"molecule": "CCCCC[C@H](O)/C=C/[C@@H]1[C@@H](C/C=C\\CCCC(=O)O)[C@@H](O)C[C@H]1O", "note": "[Prostaglandin F2]", "Percent cross-reactivity": 3.41}
